Reference: patent US5578592A, “Cephalosporin derivatives” (Pfizer Inc., priority 1992, dated 1996)

Tests used:
Assay type in all cases: cell-based
H. influenzae W/M 493 = assay: In vitro antibacterial activity (MIC), H. influenzae W/M 493; settings: Haemophilus influenzae
S. aureus Russell = assay: In vitro antibacterial activity (MIC), S. aureus Russell; settings: Staphylococcus aureus
S. epidermis PHLN20 = assay: In vitro antibacterial activity (MIC), S. epidermis PHLN20
E. Coli 10418 = assay: In vitro antibacterial activity (MIC), E. Coli 10418; settings: Escherichia coli
H. Influenzae Q1 = assay: In vitro antibacterial activity (MIC), H. Influenzae Q1; settings: Haemophilus influenzae
S. aureus Oxford = assay: In vitro antibacterial activity (MIC), S. aureus Oxford; settings: Staphylococcus aureus

CO/N=C(\C(=O)N[C@@H]1C(=O)N2C(C(=O)O)=C3[C@H]4Oc5ccccc5[C@H]4[C@@H]3S[C@H]12)c1csc(N)n1 [Example 14, Sodium (4S,8R,9S,11R,12R)-12-[2-(2-aminothiazol-4-yl)-2-(Z)-methoxy-iminoacetamido]-13-oxo-5-oxa-10-thia-1-aza-6,7-benzotetracyclo[9.2.0.0^3,9.0^4,8]tridec-2-ene-carboxylate]
MIC (H. influenzae W/M 493): 0.5 mg/L
MIC (S. aureus Russell): 1 mg/L
MIC (S. epidermis PHLN20): 0.25 mg/L
MIC (E. Coli 10418): 0.12 mg/L
MIC (H. Influenzae Q1): < 0.06 mg/L
MIC (S. aureus Oxford): 0.5 mg/L
